Patent US20050131056A1, “2- thia-dibenzoazulenes as inhibitors of tumor necrosis factor production and intermediates for the preparation thereof” (Pliva-Istrazivacki Institut d.o.o., priority 2002, published 2005)

Tested on: TNF-α and IL-1 secretion
Assay: investigated assays, not specified which (TNF-α/IL-1 secretion in human PBMC, in mouse peritoneal macrophages, LPS-induced secretion in mice, writhing assay, LPS-induced shock)
Conditions: at least two of five assays, not named; active = IC50 20 μM or lower (PBMC), 10 μM or lower (macrophages), 30% or more TNF-α inhibition at 10 mg/kg, analgetic activity as acetylsalicylic acid or better, survival 40% or more at 30 mg/kg
Method: The inhibitory action of the present compounds upon TNF-α and IL-1 secretion was determined by the following in vitro and in vivo experiments:
Human peripheral blood mononuclear cells (PBMC) were prepared from heparinized whole blood after separating PBMC on Ficoll-Paque™Plus (Amersham-Pharmacia). To determine the TNF-α level, 3.5-5×10^4 cells were cultivated in a total volume of 200 μl for 18 to 24 hours on microtitre plates with a flat bottom (96 wells, Falcon) in RPMI 1640 medium, into which there were added 10% FBS (Fetal Bovine Serum, Biowhittaker) previously inactivated at 54° C./30 min, 100 units/ml of penicillin, […] of streptomycin and 20 mM HEPES (GIBCO). The cells were incubated at 37° C. in an atmosphere with 5% CO2 and 90% humidity. […] The IL-1 level was determined in an assay under the same conditions and with the same number of cells and the same concentration of stimuli stimulus by ELISA procedure (R&D Systems). The percentage of inhibition of TNF-α or IL-1 production was calculated by the equation: • % inhibition=[1−(TS-NC)/(PC-NC)]*100. […]
In order to obtain peritoneal macrophages, Balb/C mouse strain males, age 8 to 12 weeks, were injected i.p. with 300 μg of zymosan (SIGMA) dissolved in a phosphate buffer (PBS) in a total volume of 0.1 ml/mouse. […] The TNF-α level in the cell supernatant was determined by ELISA procedure (R&D Systems, Biosource). […]

Structure (SMILES): O=Cc1scc2c1-c1ccccc1Sc1ccccc1-2 [Example 14, 2,8-Dithia-dibenzo[e,h]azulene-1-carbaldehyde]
- activity in the investigated assays: activity in at least two investigated assays
